For 22 compounds, IC50 results are on record in patent US12398118B2, “Rho-associated protein kinase inhibitor, pharmaceutical composition comprising same, and use thereof” (BEIJING TIDE PHARMACEUTICAL CO., LTD., priority 2018, dated 2025).

The structures appear in SMILES notation. A value given as a limit tells only on which side of the number the result lay.

The target of one experiment is ROCK2 (Homo sapiens, UniProt O75116). Description: ROCK2 kinase IC50, HTRF KinEASE-STK S2 kit. Format: biochemical. The note with it: 2 hours at room temperature. As to the method: (§1) The kinase IC50 was determined by a commercialized CISBIO kinase detection kit, HTRF KinEASE-STK S2 kit (62ST2PEC). ROCK2 (01-119) employed in the reaction was purchased from Carna Biosciences.
Chain of ROCK2 (O75116 whole entry, looked up): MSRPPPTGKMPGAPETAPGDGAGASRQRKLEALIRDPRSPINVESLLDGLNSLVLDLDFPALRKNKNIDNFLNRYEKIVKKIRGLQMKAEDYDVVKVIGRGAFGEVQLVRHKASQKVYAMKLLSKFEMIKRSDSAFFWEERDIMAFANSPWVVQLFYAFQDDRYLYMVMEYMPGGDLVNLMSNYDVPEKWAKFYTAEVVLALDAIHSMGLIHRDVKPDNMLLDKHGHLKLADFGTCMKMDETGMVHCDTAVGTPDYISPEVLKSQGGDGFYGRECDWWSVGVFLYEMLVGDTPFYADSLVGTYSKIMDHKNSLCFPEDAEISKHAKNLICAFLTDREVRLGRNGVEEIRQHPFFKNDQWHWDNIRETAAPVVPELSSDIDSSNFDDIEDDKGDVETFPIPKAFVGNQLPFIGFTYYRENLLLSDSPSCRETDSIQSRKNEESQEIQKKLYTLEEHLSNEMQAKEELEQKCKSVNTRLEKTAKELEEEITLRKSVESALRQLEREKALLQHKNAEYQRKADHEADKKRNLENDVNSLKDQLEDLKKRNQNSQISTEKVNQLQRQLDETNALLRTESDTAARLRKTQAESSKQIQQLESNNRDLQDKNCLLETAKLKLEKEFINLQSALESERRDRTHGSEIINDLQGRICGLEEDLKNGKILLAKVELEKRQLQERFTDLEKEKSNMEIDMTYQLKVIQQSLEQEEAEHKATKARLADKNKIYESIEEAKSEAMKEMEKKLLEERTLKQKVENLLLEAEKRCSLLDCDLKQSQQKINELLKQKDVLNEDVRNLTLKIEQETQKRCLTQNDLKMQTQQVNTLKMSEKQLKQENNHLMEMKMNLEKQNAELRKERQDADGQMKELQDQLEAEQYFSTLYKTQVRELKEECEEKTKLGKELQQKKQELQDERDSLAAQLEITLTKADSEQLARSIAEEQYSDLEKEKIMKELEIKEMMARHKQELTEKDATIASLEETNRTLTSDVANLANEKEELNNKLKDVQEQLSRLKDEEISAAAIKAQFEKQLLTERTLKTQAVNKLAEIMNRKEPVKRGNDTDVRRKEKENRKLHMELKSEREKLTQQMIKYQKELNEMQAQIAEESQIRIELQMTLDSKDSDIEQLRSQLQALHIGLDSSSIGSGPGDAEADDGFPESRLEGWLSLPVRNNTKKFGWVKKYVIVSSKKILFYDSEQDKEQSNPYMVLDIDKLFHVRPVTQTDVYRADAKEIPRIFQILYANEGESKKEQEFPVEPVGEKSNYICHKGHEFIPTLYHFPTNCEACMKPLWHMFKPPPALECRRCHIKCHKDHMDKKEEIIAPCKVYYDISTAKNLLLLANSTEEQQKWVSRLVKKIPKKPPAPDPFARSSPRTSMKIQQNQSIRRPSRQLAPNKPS
(§2) Before the assay, the following working solutions as needed were formulated with corresponding reagents according to the instruction of the kinase detection kit: 1×kinase buffer, 5×STK-S2 substrate working solution (1.5 μM) and 5×ATP working solution (1.5 μM), 5×ROCK2 kinase working solution, 4×Streptavidin-XL665 working solution, and 4×STK-Ab-Cryptate 2 detection solution. Then the assay was performed according to the following procedure.
(§3) A solution of a compound at a concentration of 10000 nM was prepared with the 1×kinase buffer containing 2.5% DMSO. Gradient dilution of the solution of the compound was performed with the kinase buffer containing DMSO, so as to obtain solutions of a test compound at 9 different concentrations. In addition to wells of test compounds, a positive well (containing all the reagents except the compound) and a negative well (containing all the reagents except the test compound and kinase) were set. Except for the control wells (positive and negative wells), a solution of a test compound (4 μL) was added to each of the reaction wells, and a solution of 2.5% DMSO was added to the control wells. Then the substrate (2 μM, i.e., 2 μL 5×STK-S2 substrate working solution) was added to each of the reaction wells. The 5×ROCK2 kinase working solution (2 μL, containing 1.4 ng ROCK2 kinase) was added to each of the reaction wells except for the negative well, the volume of which was made up with the 1×kinase buffer (2 μL). The 5×ATP working solution (2 μL) was added to each of the reaction wells, and the mixtures were incubated at room temperature for 2 hours. After the kinase reaction was complete, the 4×Streptavidin-XL665 working solution was added to each of the reaction wells, the solutions were mixed, followed by immediate addition of the 4×STK-Ab-Cryptate 2 detection solution (5 μL), and the mixtures were incubated at room temperature for 1 hour. The fluorescence signal was read on ENVISION (Perkinelmer) (excitation wavelength: 320 inn, and emission wavelength: 665 nm and 615 nm). The inhibitory rate in each well was calculated based on the fluorescence intensity value: ER (Emission Ratio)_(fluorescence intensity at 665 nm/fluorescence intensity at 615 nm); inhibitory rate=(ERpositive−ERtest compound)/(ERpositive−ERnegative)*100%. Curves were plotted and fitted to obtain the median inhibitory concentration (IC50) of each teat compound with the PRISM 5.0 software. According to a biological test method similar to the above, the IC50 values of the compounds on ROCK1 were also tested.

The next experiment has as its target ROCK1 (Homo sapiens (Human), UniProt Q13464). Description: ROCK1 kinase IC50, biological test method similar to ROCK2 assay. The class given is biochemical. The method, then: as §1, §2, §3

Chain of ROCK1 (Q13464 whole entry, species assumed): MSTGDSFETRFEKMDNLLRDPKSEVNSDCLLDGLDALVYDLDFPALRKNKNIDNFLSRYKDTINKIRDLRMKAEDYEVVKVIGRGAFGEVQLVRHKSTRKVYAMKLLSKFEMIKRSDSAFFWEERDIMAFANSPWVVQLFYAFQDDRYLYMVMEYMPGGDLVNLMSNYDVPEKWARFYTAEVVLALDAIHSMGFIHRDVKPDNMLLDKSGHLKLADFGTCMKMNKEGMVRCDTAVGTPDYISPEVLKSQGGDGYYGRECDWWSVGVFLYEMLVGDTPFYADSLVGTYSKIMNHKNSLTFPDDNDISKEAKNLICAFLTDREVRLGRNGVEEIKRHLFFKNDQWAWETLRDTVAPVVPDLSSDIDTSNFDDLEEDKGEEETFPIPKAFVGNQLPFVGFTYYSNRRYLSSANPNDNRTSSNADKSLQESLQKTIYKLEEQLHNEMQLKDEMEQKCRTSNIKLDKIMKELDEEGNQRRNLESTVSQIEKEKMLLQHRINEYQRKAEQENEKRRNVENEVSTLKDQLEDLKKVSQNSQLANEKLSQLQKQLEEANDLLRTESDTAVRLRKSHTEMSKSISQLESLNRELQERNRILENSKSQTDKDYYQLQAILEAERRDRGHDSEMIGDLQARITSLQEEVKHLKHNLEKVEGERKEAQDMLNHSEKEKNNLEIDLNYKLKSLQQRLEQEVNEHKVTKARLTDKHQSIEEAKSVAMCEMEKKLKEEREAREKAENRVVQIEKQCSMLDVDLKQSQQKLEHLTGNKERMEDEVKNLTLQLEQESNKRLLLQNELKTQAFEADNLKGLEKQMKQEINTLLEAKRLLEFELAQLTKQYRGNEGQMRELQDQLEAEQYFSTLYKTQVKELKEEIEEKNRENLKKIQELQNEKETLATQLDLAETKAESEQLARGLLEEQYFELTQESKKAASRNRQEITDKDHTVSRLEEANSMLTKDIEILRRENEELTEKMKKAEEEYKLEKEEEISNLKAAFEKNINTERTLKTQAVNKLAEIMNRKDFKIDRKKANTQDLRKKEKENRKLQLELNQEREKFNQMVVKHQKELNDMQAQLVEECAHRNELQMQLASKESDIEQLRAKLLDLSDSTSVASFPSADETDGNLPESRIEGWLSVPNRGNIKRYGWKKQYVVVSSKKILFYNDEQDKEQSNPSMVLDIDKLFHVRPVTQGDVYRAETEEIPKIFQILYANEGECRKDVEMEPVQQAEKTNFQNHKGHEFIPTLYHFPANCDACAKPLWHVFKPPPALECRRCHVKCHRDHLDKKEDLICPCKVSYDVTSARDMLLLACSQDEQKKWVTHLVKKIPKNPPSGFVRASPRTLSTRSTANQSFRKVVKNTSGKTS

Take `O=C(C1CC(F)(F)C1)N1CCc2cc(-c3ncc(F)c(Nc4ccc5c(=O)[nH]ccc5c4)n3)ccc21` [C15, 6-((2-(1-(3,3-difluoroo-cyclobutane-1-carbonyl)indolin-5-yl)-5-fluoro-pyrimidin-4-yl)amino) isoquinolin-1-(2H)-one]: the 50% inhibitory concentration (IC50) against ROCK2 is 79 nM; against ROCK1 it was > 10000 nM.
For the compound `O=C(OC1CC(F)(F)C1)N1CCc2cc(-c3nccc(Nc4ccc5c(=O)[nH]ccc5c4)n3)ccc2C1` [C25, 3,3-difluoro-cyclobutyl 6-(4-((1-oxo-1,2-dihydro-isoquinolin-6-yl)amino)pyrimidin-2-yl)-3,4-dihydro-isoquinolin-2(1H)-carboxylate], the IC50 is 45 nM against ROCK2 and > 10000 nM on ROCK1.
For `CC(OC(=O)N1CCc2cc(-c3ncc(F)c(Nc4ccc5c(=O)[nH]ccc5c4)n3)ccc21)C(F)(F)F` (centres unmarked) [C73, 1,1,1-trifluoro-propan-2-yl 5-(5-fluoro-4-((1-oxo-1,2-dihydro-isoquinolin-6-yl)amino)pyrimidin-2-yl) indoline-1-carboxylate], in that order: 78 nM and > 10000 nM.
`O=C(N1Cc2ccc(-c3ncc(F)c(Nc4ccc5c(=O)[nH]ccc5c4)n3)cc2C1)N1CC(F)(F)C1` [C79, 6-((2-(2-(3,3-difluoro-azetidine-1-carbonyl)isoindolin-5-yl)-5-fluoro-pyrimidin-4-yl)amino) isoquinolin-1(2H)-one]: the 50% inhibitory concentration (IC50) at ROCK2 was 46 nM; at ROCK1, > 10000 nM.
`CC(OC(=O)N1Cc2ccc(-c3ncc(F)c(Nc4ccc5c(c4)CCNC5=O)n3)cc2C1)C(F)(F)F` (centres unmarked) [C66, 1,1,1-trifluoro-propan-2-yl 5-(5-fluoro-4-((1-oxo-1,2,3,4-tetrahydro-isoquinolin-6-yl)amino)pyrimidin-2-yl) isoindolin-2-carboxylate]: the IC50 at ROCK2 was 82 nM; against ROCK1, > 10000 nM.
Regarding `CC(CC(=O)N1CCc2cc(-c3ncc(F)c(Nc4ccc5c(=O)[nH]ccc5c4)n3)ccc21)C(F)(F)F` (centres unmarked) [C71, 6-((5-fluoro-2-(1-(4,4,4-trifluoro-3-methyl-butanoyl)indolin-5-yl)pyrimidin-4-yl)amino) isoquinolin-1(2H)-one], the IC50 was 25 nM on ROCK2 and > 10000 nM at ROCK1.
The matching figures for `CN(CC(F)(F)F)C(=O)N1Cc2ccc(-c3ncc(F)c(Nc4ccc5c(c4)CCNC5=O)n3)cc2C1` [C78, 5-(5-fluoro-4-((1-oxo-1,2,3,4-tetrahydro-isoquinolin-6-yl)amino)pyrimidin-2-yl)-N-methyl-N-(2,2,2-trifluoro-ethyl) isoindoline-2-carboxylate]: 40 nM and > 10000 nM.
For the compound `CC(CC(=O)N1CCc2sc(-c3ncc(F)c(Nc4ccc5c(c4)CCNC5=O)n3)cc2C1)C(F)(F)F` (centres unmarked) [C55, 6-((5-fluoro-2-(5-(4,4,4-trifluoro-3-methylbutanoyl)-4,5,6,7-tetrahydrothieno[3,2-c]pyridin-2-yl)pyrimidin-4-yl)amino)-3,4-dihydroisoquinolin-1(2H)-one], the results for the IC50 against ROCK2 and at ROCK1 were 51 nM and > 10000 nM, respectively.
Turning to `CC(C)(CC(=O)N1Cc2ccc(-c3ncc(F)c(Nc4ccc5c(c4)CCNC5=O)n3)cc2C1)C(F)(F)F` [C82, 6-((5-fluoro-2-(2-(4,4,4-trifluoro-3,3-dimethyl-butanoyl)isoindolin-5-yl)pyrimidin-4-yl)amino)-3,4-dihydro-isoquinolin-1(2H)-one], the values for the IC50 at ROCK2 and on ROCK1 were 129 nM and > 10000 nM, respectively.
Regarding `CC(OC(=O)N1CCc2sc(-c3ncc(F)c(Nc4ccc5c(=O)[nH]ccc5c4)n3)cc2C1)C(F)(F)F` (centres unmarked) [C46, 1,1,1-trifluoropropan-2-yl 2-(5-fluoro-4-((1-oxo-1,2-dihydroisoquinolin-6-yl)amino)pyrimidin-2-yl)-6,7-dihydrothieno[3,2-c]pyridine-5(4H)-carboxylate], the 50% inhibitory concentration (IC50) is 21 nM against ROCK2 and > 10000 nM against ROCK1.
Consider `O=C(OC1CC(F)(F)C1)N1CCc2cc(-c3ncc(F)c(Nc4ccc5c(=O)[nH]ccc5c4)n3)ccc2C1` [C23, 3,3-difluoro-cyclobutyl 6-(5-fluoro-4-((1-oxo-1,2-dihydro-isoquinolin-6-yl)amino)pyrimidin-2-yl)-3,4-dihydro-isoquinolin-2(1H)-carboxylate], for which the figures for the half-inhibitory concentration (IC50) on ROCK2 and at ROCK1 were 173 nM and > 10000 nM, respectively.
For `CC(CC(=O)N1CCc2sc(-c3nccc(Nc4ccc5c(=O)[nH]ccc5c4)n3)cc2C1)C(F)(F)F` (centres unmarked) [C49, 6-((2-(5-(4,4,4-trifluoro-3-methylbutanoyl)-4,5,6,7-tetrahydrothieno[3,2-c]pyridin-2-yl)pyrimidin-4-yl)amino)isoquinolin-1(2H)-one], the IC50 was 7 nM against ROCK2 and > 10000 nM on ROCK1.
Turning to `CC(CC(=O)N1CCc2cc(-c3ncc(F)c(Nc4ccc5c(c4)CCNC5=O)n3)ccc21)C(F)(F)F` (centres unmarked) [C74, 6-((5-fluoro-2-(1-(4,4,4-trifluoro-3-methyl-butanoyl)indolin-5-yl)pyrimidin-4-yl)amino)-3,4-dihydro-isoquinolin-1(2H)-one], the IC50 against ROCK2 is 54 nM; on ROCK1, > 10000 nM.
In the case of `COCn1c(C(=O)N2CC(F)(F)C2)cc2ccc(-c3ncnc(Nc4ccc5c(=O)[nH]ccc5c4)n3)cc21` [C22, 6-((4(2-(3,3-difluoro-azetidine-1-carbonyl)-1-(methoxy-methyl)-1H-indol-6-yl)-1,3,5-triazin-2-yl)amino) isoquinolin-1(2H)-one], the IC50 on ROCK2 was 130 nM; at ROCK1, > 10000 nM.
For `O=C1NCCc2cc(Nc3nc(-c4ccc5c(c4)CN(C(=O)N4CCC(F)(F)CC4)C5)ncc3F)ccc21` [C41, 6-((2-(2-(4,4-difluoro-piperidine-1-carbonyl)isoindolin-5-yl)-5-fluoro-pyrimidin-4-yl)amino)-3,4-dihydro-isoquinolin-1(2H)-one], in that order: 151 nM and > 10000 nM.
Consider `O=C(OC1CC(F)(F)C1)N1CCc2cc(-c3ncc(F)c(Nc4ccc5c(=O)[nH]ccc5c4)n3)ccc21` [C16], for which the IC50 is 19 nM at ROCK2 and > 10000 nM against ROCK1.
As to `CC(OC(=O)N1Cc2ccc(-c3ncc(F)c(Nc4ccc5c(=O)[nH]ccc5c4)n3)cc2C1)C(F)(F)F` (centres unmarked) [C18, 1,1,1-trifluoro-propan-2-yl 5-(5-fluoro-4-((1-oxo-1,2-dihydro-isoquinolin-6-yl)amino)pyrimidin-2-yl) isoindoline-2-carboxylate], the IC50 on ROCK2 was 31 nM; against ROCK1, > 10000 nM.
The matching figures for `CC(CC(=O)N1Cc2ccc(-c3nccc(Nc4ccc5c(=O)[nH]ccc5c4)n3)cc2C1)C(F)(F)F` (centres unmarked) [C48, 6-((2-(2-(4,4,4-trifluoro-3-methyl-butanoyl)isoindolin-5-yl)pyrimidin-4-yl)amino) isoquinolin-1(2H)-one]: 13 nM and > 10000 nM.
Consider `CC(C)(C)CC(=O)N1Cc2ccc(-c3ncc(F)c(Nc4ccc5c(=O)[nH]ccc5c4)n3)cc2C1` [C51, 6-((2-(2-(3,3-dimethyl-butanoyl)isoindolin-5-yl)-5-fluoro-pyrimidin-4-yl)amino) isoquinolin-1(2H)-one], for which the IC50 is 53 nM against ROCK2 and > 10000 nM against ROCK1.
For `O=C(C1CC(F)(F)C1)N1Cc2ccc(-c3nccc(Nc4ccc5c(=O)[nH]ccc5c4)n3)cc2C1` [C54, 6-((2-(2-(3,3-difluoroocyclobutane-1-carbonyl)isoindolin-5-yl)pyrimidin-4-yl)amino)isoquinolin-1(2H)-one], the half-inhibitory concentration (IC50) against ROCK2 was 17 nM; at ROCK1 it was > 10000 nM.
As for `O=C(OC1CC(F)(F)C1)N1CCc2sc(-c3ncc(F)c(Nc4ccc5c(=O)[nH]ccc5c4)n3)cc2C1` [C27, 3,3-difluorocyclobutyl 2-(5-fluoro-4-((1-oxo-1,2-dihydroisoquinolin-6-yl)amino)pyrimidin-2-yl)-6,7-dihydrothieno[3,2-c]pyridine-5(4H)-carboxylate], the half-maximal inhibitory concentration (IC50) against ROCK2 was 8 nM; at ROCK1, > 10000 nM.
Take `Cn1c(C(=O)N2CC(F)(F)C2)cc2ccc(-c3nccc(Nc4ccc5c(N)nccc5c4)n3)cc21` [C38, (6-(4-((1-aminoisoquinolin-6-yl)amino)pyrimidin-2-yl)-1-methyl-1H-indol-2-yl)(3,3-difluoroazetidin-1-yl)methanone]: the IC50 against ROCK2 is 264 nM; against ROCK1, > 10000 nM.
